Experiment in all cases: PI3 Kinase Activity/Inhibitor Assay (Millipore kit, competitive ELISA)
What all share (assay type): biochemical
(ELISA stands for enzyme-linked immunosorbent assay.)

The target of one assay is PI3Kα (Homo sapiens (Human), UniProt P42336). An excerpt: (§1) The PI3 Kinase Activity/Inhibitor Assay Kit was purchased from Millipore. The dimethylsulfoxide was purchased from Sigma-Aldrich.
(§2) The PI3 Kinase Activity/Inhibitor Assay is a competitive assay used for the fast and sensitive quantitation of activity of the four class I PI3 kinases (p110 α, β, γ, δ). The PI3 Kinase Activity/Inhibitor Assay works on the principle that PI3 Kinase phosphorylates P1(3,4)P2 (PIP2), converting it to PI(3,4,5)P3 (PIP3). The PH domain of the protein GRP-1 binds PIP3 with high affinity and specificity. The kit includes this recombinant protein that is used as the capture protein. This protein binds to the glutathione plate and captures either the PIP3 generated as part of the kinase reaction or the biotinylated-PIP3 tracer included in the kit. The captured biotinylated-PIP3 is detected using streptavidin-HRP conjugate and a colorimetric read out (OD 450). The lower the signal, the higher the PI3 Kinase activity.
(§3) PI3-Kinase included in the Kit was diluted at the ratio of 1:10 with distilled water and stored on ice. The compound was prepared by diluting the stock compound to 100× of the final concentration and then diluted again at the ratio of 1:50 to make 2× of the final concentration with distilled water.
(§4) The prepared PI3-Kinase (5 μL/well) and the compound (5 μL/well) were added to Glutathione-Coated Plate and pre-incubated at room temperature for 10 minutes. After adding 5 μL of 5× Kinase reaction buffer per well, PIP2 was diluted at the ratio of 1:20 with distilled water and 5 μL were added into each well. Distilled water was added up to 25 μL, and the reaction mixture was incubated at room temperature for an hour. Biotinylated-PIP3 was diluted at the ratio of 1:18 with 1×TBS solution and 25 μL of the mixture were put in each well excluding the buffer control well. GRP1-GST was diluted at the ratio of 1:1000 with 1×TBS solution and 50 μL of it was added to every well. The mixture was incubated at room temperature for an hour.
(§5) After removing the solution contained in the wells, the wells were washed 4 times with 200 μL of 1×TBST. SA-HRP was diluted at the ratio of 1:2000 with 1×TBST, then 50 μL of it was added into every well and incubated at room temperature for an hour. Again after removing the solution, they were washed 5 times by adding 200 μL of 1×TBST to each well. 100 μL of TMB solution was added to every well. The plate was developed in the dark for 5-20 minutes. As blue color appeared, the reaction was stopped by adding 100 μL of stop solution to every well, and the plate was read at 450 nm with ELISA Reader (TECAN).
(§6) For the calculation of relative percentage to biotinylated-PIP3, we take the direct absorbance at 450 nm (A450) and set the positive Biotinylated-PIP3 wells as 100 percentage. All the other signals are divided by the Biotinylated-PIP3 average, and multiplied by 100 to show the relative percentage to the positive signal. Relative % to B-PIP3=(A450 of samples include buffer, kinase & inhibitors/A450 of Biotinylated-PIP3 average)×100
(§7) IC50 values were calculated from the values read at 450 nm by using Graphpad Prism 5 software.

The next assay addresses PI3Kγ (Homo sapiens (Human), UniProt P48736).
Excerpt: as §1, §2, §3, §4, §5, §6, §7

The target of another assay is PI3Kδ (Homo sapiens (Human), UniProt O00329).
Excerpt: as §1, §2, §3, §4, §5, §6, §7

PI3Kδ, sequence (O00329 whole entry, species assumed): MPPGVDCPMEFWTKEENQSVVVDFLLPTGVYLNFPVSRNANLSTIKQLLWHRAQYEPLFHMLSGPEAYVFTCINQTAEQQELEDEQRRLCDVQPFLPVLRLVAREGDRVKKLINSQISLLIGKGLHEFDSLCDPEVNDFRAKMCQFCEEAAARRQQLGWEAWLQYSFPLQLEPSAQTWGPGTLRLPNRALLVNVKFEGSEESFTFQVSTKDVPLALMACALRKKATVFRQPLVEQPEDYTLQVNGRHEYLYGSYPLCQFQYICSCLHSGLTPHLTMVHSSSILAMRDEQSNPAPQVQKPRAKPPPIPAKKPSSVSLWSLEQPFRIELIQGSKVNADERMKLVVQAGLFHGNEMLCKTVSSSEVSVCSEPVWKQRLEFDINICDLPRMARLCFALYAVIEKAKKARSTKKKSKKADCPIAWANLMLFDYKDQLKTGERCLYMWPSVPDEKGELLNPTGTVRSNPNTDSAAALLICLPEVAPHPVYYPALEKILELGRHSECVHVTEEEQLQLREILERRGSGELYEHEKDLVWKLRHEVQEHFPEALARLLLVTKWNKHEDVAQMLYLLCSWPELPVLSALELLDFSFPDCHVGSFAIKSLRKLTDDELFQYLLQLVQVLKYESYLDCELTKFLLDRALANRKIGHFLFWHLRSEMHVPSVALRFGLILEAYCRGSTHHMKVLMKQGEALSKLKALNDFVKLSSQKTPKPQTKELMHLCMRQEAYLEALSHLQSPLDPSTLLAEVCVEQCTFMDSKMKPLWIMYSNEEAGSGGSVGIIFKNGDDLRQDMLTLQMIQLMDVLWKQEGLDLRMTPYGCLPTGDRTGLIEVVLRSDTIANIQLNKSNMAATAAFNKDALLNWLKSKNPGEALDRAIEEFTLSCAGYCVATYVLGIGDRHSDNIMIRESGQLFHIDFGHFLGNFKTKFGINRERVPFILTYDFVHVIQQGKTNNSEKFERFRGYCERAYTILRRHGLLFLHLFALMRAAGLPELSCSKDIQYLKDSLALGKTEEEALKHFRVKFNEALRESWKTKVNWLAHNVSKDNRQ
PI3Kδ, sequence (P27986 whole entry partner, species assumed): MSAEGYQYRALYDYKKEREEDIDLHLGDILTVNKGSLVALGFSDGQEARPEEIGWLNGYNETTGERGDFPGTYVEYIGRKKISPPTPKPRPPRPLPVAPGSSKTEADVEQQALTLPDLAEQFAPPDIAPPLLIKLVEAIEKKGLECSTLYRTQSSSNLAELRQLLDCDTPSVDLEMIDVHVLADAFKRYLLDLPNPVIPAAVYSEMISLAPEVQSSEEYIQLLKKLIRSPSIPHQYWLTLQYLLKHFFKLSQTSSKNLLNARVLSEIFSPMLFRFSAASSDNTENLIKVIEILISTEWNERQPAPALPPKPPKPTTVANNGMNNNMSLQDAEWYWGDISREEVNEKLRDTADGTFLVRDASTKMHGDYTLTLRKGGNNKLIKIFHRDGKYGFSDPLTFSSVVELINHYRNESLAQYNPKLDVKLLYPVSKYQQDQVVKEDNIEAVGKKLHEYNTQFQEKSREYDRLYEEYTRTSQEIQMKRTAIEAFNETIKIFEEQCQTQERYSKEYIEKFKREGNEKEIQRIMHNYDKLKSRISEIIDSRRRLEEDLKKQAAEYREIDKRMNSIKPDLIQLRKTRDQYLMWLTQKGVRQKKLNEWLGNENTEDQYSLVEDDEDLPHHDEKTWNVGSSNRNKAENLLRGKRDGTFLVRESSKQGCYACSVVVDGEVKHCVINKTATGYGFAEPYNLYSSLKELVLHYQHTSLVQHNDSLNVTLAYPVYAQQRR
PI3Kα, sequence (P42336 whole entry, looked up, species assumed, the tested form may be a part): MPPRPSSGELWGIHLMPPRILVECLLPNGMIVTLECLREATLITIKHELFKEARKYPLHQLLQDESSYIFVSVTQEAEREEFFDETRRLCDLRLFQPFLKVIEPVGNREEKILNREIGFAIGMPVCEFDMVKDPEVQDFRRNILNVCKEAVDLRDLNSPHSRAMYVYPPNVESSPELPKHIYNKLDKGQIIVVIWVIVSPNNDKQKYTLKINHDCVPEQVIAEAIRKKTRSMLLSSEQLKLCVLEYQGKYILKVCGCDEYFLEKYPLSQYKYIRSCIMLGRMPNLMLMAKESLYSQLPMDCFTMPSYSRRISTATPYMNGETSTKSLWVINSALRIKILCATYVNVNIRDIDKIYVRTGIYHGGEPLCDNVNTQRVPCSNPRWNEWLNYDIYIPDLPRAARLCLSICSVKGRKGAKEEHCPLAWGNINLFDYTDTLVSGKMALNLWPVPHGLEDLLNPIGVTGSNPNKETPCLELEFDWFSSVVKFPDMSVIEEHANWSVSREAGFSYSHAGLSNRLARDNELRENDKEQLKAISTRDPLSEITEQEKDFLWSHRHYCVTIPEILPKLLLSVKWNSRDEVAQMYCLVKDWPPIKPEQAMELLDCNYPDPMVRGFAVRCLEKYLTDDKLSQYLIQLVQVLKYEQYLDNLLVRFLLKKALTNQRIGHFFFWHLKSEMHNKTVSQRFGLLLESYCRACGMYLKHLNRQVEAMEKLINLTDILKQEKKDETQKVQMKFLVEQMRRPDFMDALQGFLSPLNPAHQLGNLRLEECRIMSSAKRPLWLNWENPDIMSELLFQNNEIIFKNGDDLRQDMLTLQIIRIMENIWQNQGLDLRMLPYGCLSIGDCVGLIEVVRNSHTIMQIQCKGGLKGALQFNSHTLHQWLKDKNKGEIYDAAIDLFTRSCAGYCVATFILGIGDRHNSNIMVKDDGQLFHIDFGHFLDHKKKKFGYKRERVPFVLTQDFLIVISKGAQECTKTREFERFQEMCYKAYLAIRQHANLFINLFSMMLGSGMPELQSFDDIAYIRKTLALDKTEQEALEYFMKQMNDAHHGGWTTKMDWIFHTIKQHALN
PI3Kα, sequence (P27986 whole entry partner, looked up, species assumed, the tested form may be a part): as the sequence (P27986 whole entry partner, species assumed) above
PI3Kγ, sequence (P48736 whole entry, species assumed): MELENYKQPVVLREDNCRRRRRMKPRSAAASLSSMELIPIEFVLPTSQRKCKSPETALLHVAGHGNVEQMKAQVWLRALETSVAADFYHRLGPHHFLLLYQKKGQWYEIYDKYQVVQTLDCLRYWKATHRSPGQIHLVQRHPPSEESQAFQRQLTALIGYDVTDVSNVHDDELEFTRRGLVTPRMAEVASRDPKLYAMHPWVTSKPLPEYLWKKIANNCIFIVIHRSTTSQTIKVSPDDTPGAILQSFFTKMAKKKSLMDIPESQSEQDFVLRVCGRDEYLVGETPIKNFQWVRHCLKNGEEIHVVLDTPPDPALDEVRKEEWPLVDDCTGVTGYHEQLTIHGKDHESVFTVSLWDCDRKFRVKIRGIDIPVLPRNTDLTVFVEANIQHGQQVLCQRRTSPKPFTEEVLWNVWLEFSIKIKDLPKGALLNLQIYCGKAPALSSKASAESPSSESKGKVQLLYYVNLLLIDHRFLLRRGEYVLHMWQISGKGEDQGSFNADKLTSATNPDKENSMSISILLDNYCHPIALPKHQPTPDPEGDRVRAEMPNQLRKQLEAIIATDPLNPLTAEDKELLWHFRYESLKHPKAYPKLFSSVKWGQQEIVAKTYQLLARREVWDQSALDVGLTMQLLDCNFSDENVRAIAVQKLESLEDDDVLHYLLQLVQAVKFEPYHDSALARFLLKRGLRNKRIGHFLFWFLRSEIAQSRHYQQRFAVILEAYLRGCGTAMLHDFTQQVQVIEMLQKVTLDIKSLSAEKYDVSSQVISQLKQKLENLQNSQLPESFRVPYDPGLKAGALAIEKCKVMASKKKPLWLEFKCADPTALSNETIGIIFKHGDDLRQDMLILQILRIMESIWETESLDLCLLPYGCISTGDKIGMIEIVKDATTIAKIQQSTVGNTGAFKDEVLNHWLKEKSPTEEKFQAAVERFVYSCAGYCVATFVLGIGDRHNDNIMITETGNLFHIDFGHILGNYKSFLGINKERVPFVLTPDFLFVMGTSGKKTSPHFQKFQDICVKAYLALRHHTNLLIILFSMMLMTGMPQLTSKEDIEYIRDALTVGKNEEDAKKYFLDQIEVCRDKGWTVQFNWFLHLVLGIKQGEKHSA

`O=S(=O)(Nc1cncc(-c2ccc3ncnc(Oc4cccnc4)c3n2)c1)c1ccccc1`: the IC50 (in general, the concentration that gives 50% inhibition) on PI3Kα was below 10 µM; on PI3Kγ, below 1 µM; on PI3Kδ, below 10 µM.
With `O=S(=O)(Nc1cncc(-c2ccc3ncnc(OC4CCOCC4)c3n2)c1)c1ccccc1`, the IC50 at PI3Kα is below 10 µM; at PI3Kγ, below 1 µM; at PI3Kδ, below 10 µM.
With `O=S(=O)(Nc1cc(-c2ccc3ncnc(OC4CCOCC4)c3n2)cnc1Cl)c1ccc(F)cc1F`, the IC50 at PI3Kα, at PI3Kγ and at PI3Kδ was below 1 µM in each case.
With `CN1CCC(Oc2ncnc3ccc(-c4cnc(Cl)c(NS(=O)(=O)c5ccc(F)cc5F)c4)nc23)CC1`, the IC50 at PI3Kα was below 1 µM; on PI3Kγ, below 10 µM; on PI3Kδ it was below 1 µM.
In the case of `CN1CCC(Oc2ncnc3ccc(-c4cncc(NS(=O)(=O)c5ccccc5)c4)nc23)CC1`, the IC50 at PI3Kα, on PI3Kγ and on PI3Kδ was below 10 µM in each case.
Take `O=S(=O)(Nc1cc(-c2ccc3ncnc(NC4CCOCC4)c3n2)cnc1Cl)c1ccc(F)cc1F`: the IC50 on PI3Kα, on PI3Kγ and at PI3Kδ was below 10 µM in each case.
